Reference: US9718817B2, “Aryl and heteroaryl ether compounds as ROR gamma modulators” (Glenmark Pharmaceuticals S.A., priority 2014, dated 2017)

Molecular target: T1, GST-tagged ROR gamma ligand binding domain (LBD) (Homo sapiens, UniProt P51449)
T1 construct: purchased Invitrogen
T1 sequence (P51449 269-508 limits assumed): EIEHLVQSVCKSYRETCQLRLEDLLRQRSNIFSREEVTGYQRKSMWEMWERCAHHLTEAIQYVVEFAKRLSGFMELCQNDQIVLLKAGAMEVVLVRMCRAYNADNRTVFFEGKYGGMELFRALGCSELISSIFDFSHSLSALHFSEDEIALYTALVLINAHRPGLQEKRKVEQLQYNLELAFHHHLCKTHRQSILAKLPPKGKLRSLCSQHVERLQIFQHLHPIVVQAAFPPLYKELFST
Test: TR-FRET assay for ROR gamma (LanthaScreen co-activator peptide recruitment)
Type: biochemical
Settings: for IC50: class symbols, from dose response curve; for inhibition at 1 µM: compound 1 μM; for inhibition at 1 µM / inhibition at 10 µM: TR-FRET ratio 520/495, percent of control; for inhibition at 10 µM: compound 10 μM
Method in brief: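 Antagonist mode: 10 nM GST-RORγ LBD pre-incubated with compound 1 h at 22 °C in 25 mM HEPES pH 7.4, 100 mM NaCl, 5 mM DTT, 0.01% BSA, 4% DMSO final. Then 300 nM fluorescein-D22 co-activator peptide plus 10 nM Tb-anti-GST added, 1 h at room temperature. IC50 by nonlinear regression of the 520/495 TR-FRET ratio as percent of no-compound control.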

Compound	IC50	inhibition at 1 µM	inhibition at 10 µM
CCS(=O)(=O)c1ccc(CC(=O)Nc2ccc(OC3(c4ccc(Cl)cc4Cl)CC3)c(F)c2)cc1 [Example 138, N-(4-((1-(2,4-Dichlorophenyl)cyclopropyl)oxy)-3-fluorophenyl)-2-(4-(ethylsulfonyl)phenyl)acetamide]	< 50 nM	86.8%	83.6%
CCS(=O)(=O)c1ccc(CC(=O)Nc2ccc(OC3(c4ccc(Cl)cc4Cl)CCC3)c(F)c2)cc1 [Example 139, N-(4-((1-(2,4-Dichlorophenyl)cyclobutyl)oxy)-3-fluorophenyl)-2-(4-(ethylsulfonyl)phenyl)acetamide]	< 50 nM	86.3%	82.6%
CCS(=O)(=O)c1ccc(CC(=O)Nc2ccc(OC3(c4ccc(F)cc4F)CCCCC3)c(F)c2)cc1 [Example 140, N-(4-((1-(2,4-Difluorophenyl)cyclohexyl)oxy)-3-fluorophenyl)-2-(4-(ethylsulfonyl)phenyl)acetamide]	< 50 nM	69.1%	72.8%
CCS(=O)(=O)c1ccc(CC(=O)Nc2ccc(OC3(c4ccc(F)cc4F)CCC3)c(F)c2)cc1 [Example 141, N-(4-(1-(2,4-Difluorophenyl)cyclobutoxy)-3-fluorophenyl)-2-(4-(ethylsulfonyl)phenyl)acetamide]	< 50 nM	81.4%	75.2%
CCS(=O)(=O)c1ccc(CC(=O)Nc2ccc(OC3(c4ccc(F)cc4F)COC3)c(F)c2)cc1 [Example 142, N-(4-((3-(2,4-Difluorophenyl)oxetan-3-yl)oxy)-3-fluorophenyl)-2-(4-(ethylsulfonyl)phenyl)acetamide]	< 50 nM	81.1%	81.5%
CCn1c(C(C)(C)Oc2ccc(Cl)cc2Cl)nc2cc(NC(=O)Cc3ccc(S(=O)(=O)CC)cc3)ccc21 [Example 144, N-(2-(2-(2,4-Dichlorophenoxy)propan-2-yl)-1-ethyl-1H-benzo[d]imidazol-5-yl)-2-(4-(ethylsulfonyl)phenyl)acetamide]	< 50 nM	90.6%	92.5%
CCS(=O)(=O)c1ccc(CC(=O)Nc2ccc3c(c2)nc(C(C)(C)Oc2ccc(F)cc2F)n3CCF)cc1 [Example 145, N-(2-(2-(2,4-Difluorophenoxy)propan-2-yl)-1-(2-fluoroethyl)-1H-benzo[d]imidazol-5-yl)-2-(4-(ethylsulfonyl)phenyl)acetamide]	< 50 nM	79.7%	85.8%
